Measured values reported in patent publication US7977045B2, “Aqueous-based pharmaceutical composition” (Aventis Pharmaceuticals Inc., priority 1996, dated 2011).

Assay: Positron emission tomography of nasal deposition and retention of TAA after spraying the composition
Format: in vivo, human
Procedure: A dose of the composition can be delivered to a human patient by spraying the composition into each of the patient's nasal cavities. For dose delivery, the pre-compression metering pump (Valois VP7/100S) is placed in a patient's nostril and is then actuated by the patient, resulting in a spray into the nasal cavity. After initial priming, each actuation of the pump delivers from the nasal actuator about 100 mg of composition containing about 55 mcg of TAA. Each bottle of composition will provide at least about 120 metered doses. For the exemplified compositions, the recommended once-daily dosing for adults and children 12 years and older begins at about 220 mcgs of TAA, equivalent to two sprays in each nostril.
A composition comprising the formulation of Examples 1 and 2 was administered to two volunteer patients. Post administration, the patients were evaluated by positron emission tomography in order to determine 1) the amount of time it took for the maximum dose of the TAA medicament to be delivered to various regions of interest within the nasal cavity, and 2) the amount of TAA medicament deposited on the regions of interest over a two hour time period. For purposes of the evaluation, the volume of the head region was segmented into 104 distinct regions of interest. […] The results of evaluation indicate a rapid distribution of the TAA medicament to the target regions of the nose.
The evaluation included also a determination of the percentage of the TAA medicament remaining on the target sites two hours after the it was administered to each of the patients. This percentage was determined by dividing the amount remaining in each region of interest by the total amount remaining in the 104 regions of interest.

[1] = first volunteer, at maximum concha contact
[2] = first volunteer, over a two-hour period
[3] = first volunteer, two hours post administration, share of total remaining in 104 regions
[4] = other (second) volunteer, post dose
[5] = second volunteer, two hours post administration

## CC1(C)O[C@@H]2C[C@H]3[C@@H]4CCC5=CC(=O)C=C[C@]5(C)[C@@]4(F)[C@@H](O)C[C@]3(C)[C@]2(C(=O)CO)O1 [TAA, triamcinolone acetonide]
Both volunteers, amount in region divided by total amount remaining in the 104 regions of interest, two hours
  dose directly deposited on the target sites (frontal cavity, frontal sinus, maxillary sinuses, superior and inferior concha): greater than 85%
First volunteer
  maximum amount of TAA medicament in contact with the frontal cavity region: about 41%
  maximum amount of the dose deposited into the frontal sinus: approximately 3.5%
  maximum amount of the dose deposited into the maxillary sinuses: ~3.9%
  time to clearance of TAA medicament from the frontal sinus: ≤ 1 h
[1]
  amount of total dose in contact with the inferior concha: About 46%
  amount of total dose in contact with the superior concha: about 19%
First volunteer, final time period
  amount of total dose remaining in the concha tissues (constant value): 3.4-4%
First volunteer, intranasal spray of formulation of Examples 1 and 2, PET
  maximum amount of TAA medicament in contact with the concha regions, % of total dose delivered to the nose: about 65%
[2]
  dose deposited in the maxillary sinus region: about 3%
  dose deposited on the frontal sinus: about 1.2%
First volunteer, post dose
  time of maximum amount in contact with the concha regions: about 45 seconds
  time of maximum amount in contact with the frontal cavity region: about 45 seconds
  time of maximum deposit in the frontal and maxillary sinuses: ≤ 30 s
First volunteer, two hour acquisition sampling time
  medicament still present in the maxillary sinuses: approximately 1%
First volunteer, two hours after administration, share of total remaining in 104 regions
  total TAA medicament remaining deposited in the frontal cavity: about 47.9%
First volunteer, two hours post administration
  amount remaining in the concha region (inferior plus superior): about 36.4%
[3]
  total medicament deposited in the inferior concha region: about 27.8%
  total medicament deposited in the superior concha region: about 8.6%
First volunteer, two hours post-dose
  amount in the frontal cavity region (constant level): about 12%
First volunteer, two-hour serial sampling period
  sum of percentages remaining on the target sites (dose deposited directly onto target tissues): about 88.5%
Other (second) volunteer
  maximum amount deposited in the frontal sinus: around 3.5%
  maximum amount deposited in the maxillary sinus: about 2%
  maximum amount of TAA medicament in contact with the frontal cavity, % of total dose delivered to the nose: about 55%
  part of the maximum concha amount associated with the inferior concha: about 75%
  part of the maximum concha amount associated with the superior concha: about 25%
Other (second) volunteer, about two hours post-administration
  administered dose still in contact with the concha regions: 6-8%
Other (second) volunteer, after two hours
  dose still resident in the frontal/nasal cavity: approximately 22%
Other (second) volunteer, intranasal spray of formulation of Examples 1 and 2, PET
  maximum amount of the drug in contact with the concha regions, % of total dose delivered to the nose: about 53%
[4]
  time of maximum amount in contact with the frontal cavity: ≤ 30 s
  time of maximum amount in contact with the inferior concha region: about 3.5 minutes
  time of maximum amount in contact with the superior concha region: about 25 seconds
  time of maximum deposit in the maxillary and frontal sinuses: ≤ 30 s
Second volunteer, two hour serial sampling period
  sum of percentages remaining on the target sites (dose deposited directly onto target tissues): about 85.6%
[5]
  dose in the frontal sinus: about 1.6%
  dose in the maxillary sinus: about 1.4%
  dose remaining deposited on the inferior concha: About 23.5%
  dose remaining deposited on the superior concha: about 6.9%
  total percentage of the dose remaining deposited on the concha region: about 30.4%
Second volunteer, two hours post-drug administration, share of total remaining in 104 regions
  dose remaining deposited in the frontal cavity: about 52.2%
